Assay results from patent US8541607B2, “Disulfide, sulfide, sulfoxide, and sulfone derivatives of cyclic sugars and uses thereof” (Lacer, S.A., priority 2003, dated 2013).

Columns and labels:
[1] = test system: heart (AVP-induced coronary vasoconstriction); test: In vivo protection against ischemia-reperfusion damage in the heart (arginine-vasopressin induced S-wave depression); conditions: p.o.; for S-wave decrement: 1 h before AVP 0.3 U/kg, vehicle 46.2 ± 4.9
Experimental: Experiments were performed according to the model previously described by Hirata Y at al (Journal of Cardiovascular Pharmacology, 1998, 31: 322-326)
After a food fasting period of 6 hours, animals were divided into groups of at least 8 animals each. Doses of products were given by oral sounding 1 h before the ischemia induction. Animals were anaesthetized with pentobarbital (40 mg/kg, i.p.) and the standard limb lead II electrocardiogram was recorded to detect the S-wave depression. 0.3 U/kg arginine-vasopressin (AVP) (Sigma Chemicals, St Louis, Mo., USA) was injected into the carotid artery to induce vasoconstriction of small coronary arteries and increase in coronary resistance. In all the groups received AVP 60 min after, the test drug. In all groups, after AVP injection of 10 minutes ECG recording was performed.
The results are shown in table 16 and are expressed as S-wave decrements (μvolts).

[2] = test system: Rats, left carotid artery thrombosis (FeCl3); test: In vivo antithrombotic effect, FeCl3 carotid artery thrombosis; design: species or system rat; conditions: single oral dose of 100 mg/Kg; no occlusion during 60 min after FeCl3 patch
Experimental: The method used is substantially the same as described by Kurz (Kurz K. D., et al., Thromb. Res. 1990, 60:269-280) and modified by Feuerstein (Feuerstein G. Z., et al., Artherioscler. Thromb. Vase. Biol. 1999, 19: 2554-25562).
Rats received a single oral dose of 100 mg/Kg of the compounds.
Forty-five minutes after dosing rats were anaesthetized with sodium pentobarbital (40 mg/kg, i.p.) and they were placed later dorsally on a heated (37° C.) surgical board.
The left carotid artery was isolated and a Parafilm 4 sheet (7×20 mm, American National Can) was placed under it. An electromagnetic sounding of flow (Transonic Systems Inc.) was placed on the artery to measure blood flow.
Sixty minutes after product administration, a paper patch saturated with FeCl3 solution (70%) was placed (and not removed for the whole duration of the experiment) on the left carotid artery downstream from the sounding of flow to initiate thrombosis. The blood flow was controlled during the 60 min later to the application of the patch in the artery.
The vessel was considered totally occluded by the thrombus formed when no blood flow was detected (0.0 ml/min). In this model, thrombus formation usually takes place within 15 to 20 minutes in non-treated animals.

[3] = test system: heparinized plasma (plasma lipoproteins); test: Inhibition of plasma oxidation induced by Cu2+ (absorbance 234 nm); format: biochemical; conditions: compounds at 10 μM; 50 μM CuSO4; mean ± s.e.m.
Experimental: The method used in the assays to determine the effect of compounds on the capacity of oxidation of the plasma is substantially the same as described in Spranger T. et al., Chem Phys Lipids 1998; 91: 39-52.
Lipoprotein oxidation induced in vitro in plasma is expected to represent a relevant model of the lipoprotein oxidation in the arterial wall. Oxidation of plasma lipoproteins was assessed as the capacity of oxidation of heparinized plasma and was measured by spectrophotometry as in increase in absorbance at 234 nm. The compounds were added in vitro to determine their inhibitory activity over the capacity of oxidation of plasma induced by Cu^2+ (CuSO4). Heparinized plasma was diluted with phosphate-buffered saline solution (PBS) containing 0.16 M NaCl, and the oxidation was started by 50 μM CuSO4. Experimental samples were incubated at 37° C. and the increase in absorbance at 234 nm was automatically recorded every 15 min for at least 12 h. The effect of compounds over the capacity of oxidation of plasma induced by Cu^2+ was tested at 7 different concentrations using heparinizaded plasma from 7 different healthy donors.

arterial rings = test: Test of vasorelaxation on arterial rings contracted with phenylephrine; format: cell-based; conditions: artery ring contracted with 1 μM Phenylephrine; mean ± s.d.; read-out: EC50 (vasodilatation equal to 50% of the maximum tone)
Experimental: The method used in the assays is substantially the same as described in following references: • * Furchgot, R. F., “Methods in nitric oxide research”; Feelisch & Stamler, eds., John Wiley & Sons, Chichester, England, pp 567-581. • * Trongvanbichnam K., et al., Jpn. J. Pharmacol. 71 (1996); 167-173. • * Sales, E., at al., Eur. J. Pharmacol. 258 (1994); 47-55.
The different compounds are tested at 5 different concentrations, at a concentration range from 0.0001 to 10 mM, using from 6 to 9 arterial rings for each compound. The obtained results are compared to those from the isosorbide 5-mononitrate, which is used as reference product.
The results are shown in table 1 below and are provided as EC50 (effective concentration 50), which is the concentration of each of the tested, compounds yielding a vasodilatation equal to 50% of the maximum tone at which the artery ring has been contracted with 1 μM of Phenylephrine.

## CC(=O)S[C@H]1CO[C@H]2[C@@H]1OC[C@H]2O[N+](=O)[O-] [(12), 2-acetylthio-isosorbide-5-mononitrate]
[1]; 20 mg/kg
  Protection of S-wave decrement: 52%
  S-wave decrement: 22.6 ± 5.9 μV
[1]; 100 mg/kg
  Protection of S-wave decrement: 81%
  S-wave decrement: 8.6 ± 2.8 μV
[2]
  % of animals fully protected: 71%
[3]
  % of increment of lag phase with respect to control (plasma oxidation): 200 ± 10%
Arterial rings
  EC50: 23 ± 10 µM

## O=[N+]([O-])O[C@@H]1CO[C@H]2[C@@H]1OC[C@@H]2S [(1), 2-thioisosorbide 5-mononitrate]
[2]
  % of animals fully protected: 100%
[3]
  % of increment of lag phase with respect to control (plasma oxidation): 245 ± 26%
Arterial rings
  EC50: 41 ± 6 µM
